{
  "source": "patent US9371265B2",
  "about": "“Compositions and methods related to inhibitors of JAK kinase” (EP PHARMA, INC., priority 2012, dated 2016)",
  "key": {"PIK3C2B": {"target": "PIK3C2B (Homo sapiens, UniProt O00750)", "assay": "Kinase panel: PIK3C2B", "assay_type": "biochemical", "settings": "10 μM EP009", "protocol": "(§1) Achieving JAK3 selectivity remains a significant challenge in the development of new small molecules for the treatment of cancer and immune-derived diseases. As such, the inventors employed cell-based screening assays of small-molecule libraries based upon the chemical scaffold of the established JAK3 inhibitor NC1153 (Stepkowski et al., J Immunol. (2005), 175(7):4236-4246) EP009 (FIG. 2A) was selected as a lead compound due to improved intrinsic stability (>95% purity in various solvents at 37° C. for 24 hours; FIG. 3) and high-degree of JAK3 selectivity. To test JAK3 versus JAK2 specificity of EP009, the IL-2/JAK3-dependent Kit225, and IL-3/JAK2-dependent BaF/3 cell lines were used. Kit225 and BaF/3 cells growing in the presence of IL-2 or IL-3, respectively, were treated with ascending concentrations of EP009 for 12 hours and cellular JAK3 and JAK2 tyrosine phosphorylation levels detected by Western blot analysis (FIGS. 2B and 2C). Following densitometric analysis, EP009 was determined to dose-dependently reduce IL-2-mediated JAK3 tyrosine phosphorylation with a cellular 50% inhibitory concentration (IC50) between 10 and 20 μM (FIG. 2B). […] To globally evaluate specificity, the inhibitory activity of EP009 was measured against a panel of protein kinases distributed throughout the kinome using the scanEDGE profiling service (KINOMEscan). […]"}, "LKB1": {"target": "LKB1 (Homo sapiens, UniProt Q15831)", "sequence (Q15831 whole entry)": "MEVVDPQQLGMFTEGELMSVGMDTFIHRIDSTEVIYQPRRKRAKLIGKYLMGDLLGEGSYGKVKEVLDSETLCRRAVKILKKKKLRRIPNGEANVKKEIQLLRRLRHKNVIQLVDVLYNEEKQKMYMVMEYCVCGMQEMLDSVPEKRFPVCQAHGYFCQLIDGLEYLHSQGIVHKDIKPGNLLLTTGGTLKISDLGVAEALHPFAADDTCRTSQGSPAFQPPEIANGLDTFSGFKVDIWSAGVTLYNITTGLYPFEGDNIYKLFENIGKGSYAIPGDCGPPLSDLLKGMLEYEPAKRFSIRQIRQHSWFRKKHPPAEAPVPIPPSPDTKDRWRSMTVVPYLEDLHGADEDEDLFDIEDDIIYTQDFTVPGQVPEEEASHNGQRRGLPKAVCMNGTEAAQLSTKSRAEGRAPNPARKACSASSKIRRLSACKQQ", "assay": "Kinase panel: LKB1", "assay_type": "biochemical", "settings": "10 μM EP009", "protocol": "as §1"}, "FLT3": {"target": "FLT3 (Homo sapiens, UniProt P36888)", "sequence (P36888 27-993)": "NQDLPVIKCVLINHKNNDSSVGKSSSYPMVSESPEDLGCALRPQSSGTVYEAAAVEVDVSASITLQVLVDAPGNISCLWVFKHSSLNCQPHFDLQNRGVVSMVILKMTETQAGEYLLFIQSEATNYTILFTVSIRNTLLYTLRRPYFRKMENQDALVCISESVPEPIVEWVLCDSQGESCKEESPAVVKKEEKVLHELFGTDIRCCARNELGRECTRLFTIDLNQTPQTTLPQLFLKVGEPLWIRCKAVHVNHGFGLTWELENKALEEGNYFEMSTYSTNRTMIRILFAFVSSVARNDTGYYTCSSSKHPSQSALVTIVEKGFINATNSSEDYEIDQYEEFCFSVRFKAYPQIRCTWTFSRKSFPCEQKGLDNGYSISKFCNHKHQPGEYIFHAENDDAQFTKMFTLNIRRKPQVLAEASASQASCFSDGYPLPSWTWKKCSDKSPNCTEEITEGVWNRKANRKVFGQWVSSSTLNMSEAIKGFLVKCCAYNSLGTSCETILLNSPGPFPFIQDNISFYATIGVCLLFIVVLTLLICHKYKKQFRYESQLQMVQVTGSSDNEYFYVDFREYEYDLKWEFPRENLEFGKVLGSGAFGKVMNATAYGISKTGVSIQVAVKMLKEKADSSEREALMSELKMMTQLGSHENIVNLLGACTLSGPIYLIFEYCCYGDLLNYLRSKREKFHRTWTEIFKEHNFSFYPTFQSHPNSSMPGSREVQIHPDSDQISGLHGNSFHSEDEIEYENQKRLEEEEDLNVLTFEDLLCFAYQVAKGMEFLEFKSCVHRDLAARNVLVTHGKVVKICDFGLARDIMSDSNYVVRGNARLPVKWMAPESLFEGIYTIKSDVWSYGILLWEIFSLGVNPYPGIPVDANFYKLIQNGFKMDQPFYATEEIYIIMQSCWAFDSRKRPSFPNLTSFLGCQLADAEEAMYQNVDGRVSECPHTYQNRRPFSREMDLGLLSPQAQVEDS", "assay": "Kinase panel: FLT3", "assay_type": "biochemical", "settings": "10 μM EP009", "protocol": "as §1"}, "[1]": {"tested_on": "IL-2/JAK3-dependent Kit225 cells", "assay": "Kit225 cell viability (MTS)", "assay_type": "cell-based, human", "protocol": "FIGS. 2A-2F. […] (B) Kit225 or (C) BaF/3 cells cultured in the presence of IL-2 or IL-3, respectively, were treated with vehicle (PBS; lane a) or increasing amounts of EP009 (0-50 μM; lanes b-h) for 12 hours. Cells were then lysed, clarified, and immunoprecipitated (IP) with anti-JAK3 (α-JAK3) or anti-JAK2 (α-JAK2), and subjected to Western blot (WB) analysis with anti-phosphotyrosine (α-pY). Blots were stripped and reprobed with corresponding antibody to verify equivalent protein loading. (D) Immunopurified JAK3 was subjected to in vitro autokinase analysis after treatment with vehicle (DMSO; lanes a and b) or ascending concentrations of EP009 (0-10 μM; lanes c-f) for 1 hour at room temperature. […] (E) Kit225 or BaF/3 cells were cultured with increasing amounts of EP009 (0-10 μM) for 72 hours and cell viability measured with the MTS tetrazolium salt assay. Values represent mean absorbance (OD490-OD650 nm) normalized to vehicle (PBS) treated control cells, while error bars represent the standard deviation (n=3). (F) HEK293, HEPG2, or naïve primary human PBMCs were cultured with increasing amounts of EP009 (0-10 μM) for 72 hours and cell viability measured with the MTS tetrazolium salt assay. Values represent mean absorbance (OD490-OD650 nm) normalized to vehicle (PBS) treated control cells, while error bars represent the standard deviation (n=3). […]"}, "MKNK2": {"target": "MKNK2 (Homo sapiens, UniProt Q9HBH9)", "assay": "Kinase panel: MKNK2", "assay_type": "biochemical", "settings": "10 μM EP009", "protocol": "as §1"}, "VEGFR2": {"target": "VEGFR2 (Homo sapiens, UniProt P35968)", "sequence (P35968 20-1356)": "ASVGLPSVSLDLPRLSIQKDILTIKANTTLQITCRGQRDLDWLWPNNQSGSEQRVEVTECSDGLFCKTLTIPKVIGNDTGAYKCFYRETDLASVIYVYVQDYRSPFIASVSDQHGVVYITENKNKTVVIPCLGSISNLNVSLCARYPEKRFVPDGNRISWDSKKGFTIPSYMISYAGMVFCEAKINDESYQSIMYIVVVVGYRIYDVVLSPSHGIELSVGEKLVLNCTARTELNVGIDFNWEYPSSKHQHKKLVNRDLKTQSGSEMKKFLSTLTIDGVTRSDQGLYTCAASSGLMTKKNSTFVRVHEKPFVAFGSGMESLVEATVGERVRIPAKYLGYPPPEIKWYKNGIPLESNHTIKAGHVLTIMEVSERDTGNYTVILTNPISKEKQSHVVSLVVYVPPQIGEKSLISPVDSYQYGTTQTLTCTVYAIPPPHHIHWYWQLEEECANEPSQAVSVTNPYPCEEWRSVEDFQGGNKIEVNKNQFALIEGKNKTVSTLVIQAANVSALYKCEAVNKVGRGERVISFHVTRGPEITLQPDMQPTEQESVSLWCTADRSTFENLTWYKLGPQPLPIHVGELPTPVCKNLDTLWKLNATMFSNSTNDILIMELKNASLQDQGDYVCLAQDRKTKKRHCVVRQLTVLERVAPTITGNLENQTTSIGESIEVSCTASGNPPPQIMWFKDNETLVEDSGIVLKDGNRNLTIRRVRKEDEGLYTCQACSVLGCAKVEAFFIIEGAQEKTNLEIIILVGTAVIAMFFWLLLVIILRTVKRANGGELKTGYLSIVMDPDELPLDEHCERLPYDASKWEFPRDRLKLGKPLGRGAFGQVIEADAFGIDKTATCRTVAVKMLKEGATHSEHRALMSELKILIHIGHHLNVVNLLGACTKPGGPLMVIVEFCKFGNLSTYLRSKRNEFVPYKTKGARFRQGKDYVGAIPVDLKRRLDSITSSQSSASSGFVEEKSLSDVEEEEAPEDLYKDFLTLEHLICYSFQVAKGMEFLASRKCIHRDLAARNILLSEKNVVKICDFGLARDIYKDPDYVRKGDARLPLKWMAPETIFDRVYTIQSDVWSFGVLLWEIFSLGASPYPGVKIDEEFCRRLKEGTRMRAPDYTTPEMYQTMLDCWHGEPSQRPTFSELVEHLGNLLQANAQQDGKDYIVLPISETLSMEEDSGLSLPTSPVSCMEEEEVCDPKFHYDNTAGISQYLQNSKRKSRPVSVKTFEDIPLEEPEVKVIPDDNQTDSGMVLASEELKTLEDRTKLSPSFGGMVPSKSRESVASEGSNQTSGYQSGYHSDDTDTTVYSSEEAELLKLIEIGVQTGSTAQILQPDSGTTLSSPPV", "assay": "Kinase panel: VEGFR2", "assay_type": "biochemical", "settings": "10 μM EP009", "protocol": "as §1"}, "KIT(V559D, T670I)": {"target": "KIT(V559D, T670I) (Homo sapiens, UniProt P10721, T670I/V559D)", "sequence (P10721 26-976 V559D/T670I)": "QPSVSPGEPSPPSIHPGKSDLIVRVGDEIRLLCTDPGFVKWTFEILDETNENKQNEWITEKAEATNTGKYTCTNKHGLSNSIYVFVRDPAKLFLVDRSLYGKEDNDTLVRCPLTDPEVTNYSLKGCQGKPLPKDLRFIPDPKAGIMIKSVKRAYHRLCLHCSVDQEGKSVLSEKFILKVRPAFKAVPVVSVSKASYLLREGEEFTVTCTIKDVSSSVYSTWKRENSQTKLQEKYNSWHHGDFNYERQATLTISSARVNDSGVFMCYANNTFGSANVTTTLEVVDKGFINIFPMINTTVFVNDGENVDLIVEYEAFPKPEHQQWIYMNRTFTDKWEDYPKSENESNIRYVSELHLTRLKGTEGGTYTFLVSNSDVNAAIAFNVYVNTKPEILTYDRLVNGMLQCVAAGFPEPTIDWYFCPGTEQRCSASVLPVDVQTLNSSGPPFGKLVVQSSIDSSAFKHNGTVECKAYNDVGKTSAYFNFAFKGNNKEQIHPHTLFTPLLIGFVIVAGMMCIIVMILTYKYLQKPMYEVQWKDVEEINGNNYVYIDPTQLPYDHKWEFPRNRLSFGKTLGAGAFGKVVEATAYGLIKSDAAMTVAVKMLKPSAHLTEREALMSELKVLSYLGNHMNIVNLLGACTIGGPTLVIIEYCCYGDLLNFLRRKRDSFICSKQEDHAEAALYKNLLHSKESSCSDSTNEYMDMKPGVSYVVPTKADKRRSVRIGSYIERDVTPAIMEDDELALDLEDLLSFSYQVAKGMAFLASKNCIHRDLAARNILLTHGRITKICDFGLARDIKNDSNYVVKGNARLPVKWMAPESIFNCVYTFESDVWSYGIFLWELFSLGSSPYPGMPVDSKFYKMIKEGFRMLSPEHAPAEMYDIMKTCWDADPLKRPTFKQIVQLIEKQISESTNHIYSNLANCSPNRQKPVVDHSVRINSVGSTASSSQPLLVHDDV", "assay": "Kinase panel: KIT(V559D, T670I)", "assay_type": "biochemical", "settings": "10 μM EP009", "protocol": "as §1"}, "RAF1": {"target": "RAF1 (Homo sapiens, UniProt P04049)", "sequence (P04049 whole entry)": "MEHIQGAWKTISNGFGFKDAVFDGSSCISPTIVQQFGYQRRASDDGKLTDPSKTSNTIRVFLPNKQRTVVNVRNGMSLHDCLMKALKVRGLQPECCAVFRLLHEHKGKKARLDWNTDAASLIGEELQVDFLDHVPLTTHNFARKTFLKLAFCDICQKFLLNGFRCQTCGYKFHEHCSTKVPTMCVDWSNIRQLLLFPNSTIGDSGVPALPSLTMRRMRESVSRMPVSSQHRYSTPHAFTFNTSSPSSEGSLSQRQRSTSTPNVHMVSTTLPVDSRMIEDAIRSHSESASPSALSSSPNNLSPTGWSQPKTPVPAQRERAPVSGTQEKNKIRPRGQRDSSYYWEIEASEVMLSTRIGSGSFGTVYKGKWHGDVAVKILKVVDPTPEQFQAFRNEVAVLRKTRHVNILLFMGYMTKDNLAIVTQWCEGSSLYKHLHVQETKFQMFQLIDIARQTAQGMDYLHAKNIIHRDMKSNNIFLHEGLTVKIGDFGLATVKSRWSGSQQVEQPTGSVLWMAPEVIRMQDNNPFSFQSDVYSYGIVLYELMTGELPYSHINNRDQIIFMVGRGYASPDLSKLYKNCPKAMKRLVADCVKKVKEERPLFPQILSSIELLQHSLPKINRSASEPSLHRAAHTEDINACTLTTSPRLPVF", "assay": "Kinase panel: RAF1", "assay_type": "biochemical", "settings": "10 μM EP009", "protocol": "as §1"}, "PIM2": {"target": "PIM2 (Homo sapiens, UniProt Q9P1W9)", "sequence (Q9P1W9 whole entry)": "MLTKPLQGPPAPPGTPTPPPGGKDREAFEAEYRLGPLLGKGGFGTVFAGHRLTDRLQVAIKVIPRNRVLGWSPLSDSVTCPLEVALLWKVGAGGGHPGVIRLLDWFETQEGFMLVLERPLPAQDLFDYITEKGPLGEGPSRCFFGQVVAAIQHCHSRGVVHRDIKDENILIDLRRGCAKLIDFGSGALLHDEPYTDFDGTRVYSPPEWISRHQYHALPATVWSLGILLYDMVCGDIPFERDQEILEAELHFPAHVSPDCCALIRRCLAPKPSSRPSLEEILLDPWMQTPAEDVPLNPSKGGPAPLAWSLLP", "assay": "Kinase panel: PIM2", "assay_type": "biochemical", "settings": "10 μM EP009", "protocol": "as §1"}, "[2]": {"assay": "LD50 / acute safety, intravenous tail vein injection", "assay_type": "in vivo", "settings": "mice, IV bolus", "protocol": "Mice were dosed using EP009 (-P) by intravenous tail vein injection. 25 mice were divided into groups of 5 and given doses of 2.0 mg (group B), 4.0 mg (group C), 6.0 mg (group D), and 8.0 mg (group E) of EP009, along with a placebo control (group A), in a volume of […]. This corresponded to doses of 100, 200, 300, 400 mg/kg, and 0 mg/kg (control). Dosing began at 3:15 p.m., and began with the highest dose group, followed by 6, 4, 2, and the control group. Dosing took around 15 minutes."}, "MLK1": {"target": "MLK1 (Homo sapiens, UniProt P80192)", "assay": "Kinase panel: MLK1", "assay_type": "biochemical", "settings": "10 μM EP009", "protocol": "as §1"}, "p38-alpha": {"target": "p38-alpha (Homo sapiens, UniProt Q16539)", "sequence (Q16539 whole entry)": "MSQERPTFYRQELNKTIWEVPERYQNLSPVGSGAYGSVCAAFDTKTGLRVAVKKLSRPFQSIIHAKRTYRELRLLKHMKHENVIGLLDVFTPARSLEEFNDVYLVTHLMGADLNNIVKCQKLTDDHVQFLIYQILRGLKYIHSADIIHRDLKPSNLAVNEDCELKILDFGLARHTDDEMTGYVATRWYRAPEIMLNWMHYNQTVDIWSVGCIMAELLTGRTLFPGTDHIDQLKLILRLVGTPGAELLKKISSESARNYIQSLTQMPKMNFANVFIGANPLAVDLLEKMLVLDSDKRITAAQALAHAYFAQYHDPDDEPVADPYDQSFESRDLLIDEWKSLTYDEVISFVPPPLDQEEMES", "assay": "Kinase panel: p38-alpha", "assay_type": "biochemical", "settings": "10 μM EP009", "protocol": "as §1"}},
  "data": [
    {"smiles": "C=C1CCCCCCCCCC(CO)C1=O", "note": "(stereo not shown) [EP009, 2-(Hydroxymethyl)-12-methylenecyclododecanone]", "values": [
      {"measurement": "Kinase Activity (% of Control)", "setting": "PIK3C2B", "result": "70 % of Control"},
      {"measurement": "Kinase Activity (% of Control)", "setting": "LKB1", "result": "100 % of Control"},
      {"measurement": "Kinase Activity (% of Control)", "setting": "FLT3", "result": "99 % of Control"},
      {"measurement": "concentration resulting in maximal loss of Kit225 cell viability", "setting": "[1]; 72 hours", "result": "7.5 to 10", "unit": "µM"},
      {"measurement": "cytotoxicity at 5 µM", "setting": "[1]; Homo sapiens, Kit225, 5.0 μM EP009, 72 hours, read-out: reduction in cell viability", "result": 55, "unit": "%"},
      {"measurement": "Kinase Activity (% of Control)", "setting": "MKNK2", "result": "100 % of Control"},
      {"measurement": "Kinase Activity (% of Control)", "setting": "VEGFR2", "result": "100 % of Control"},
      {"measurement": "Kinase Activity (% of Control)", "setting": "KIT(V559D, T670I)", "result": "94 % of Control"},
      {"measurement": "Kinase Activity (% of Control)", "setting": "RAF1", "result": "97 % of Control"},
      {"measurement": "Kinase Activity (% of Control)", "setting": "PIM2", "result": "100 % of Control"},
      {"measurement": "dose limiting safety in vivo", "setting": "[2]", "result": "200 to 300", "unit": "mg/kg"},
      {"measurement": "Kinase Activity (% of Control)", "setting": "MLK1", "result": "100 % of Control"},
      {"measurement": "Kinase Activity (% of Control)", "setting": "p38-alpha", "result": "100 % of Control"}
    ]}
  ]
}
